{
  "source": "patent US7915402B2",
  "about": "“Antioxidant inflammation modulators: oleanolic acid derivatives with saturation in the C-ring” (Reata Pharmaceuticals, Inc., priority 2008, dated 2011)",
  "key": {"[1]": {"assay": "Plasma pharmacokinetics after oral dosing in rats", "type": "in vivo, Sprague Dawley rats", "settings": "SD rats, oral gavage", "method": "Compound 404-02 reaches high concentrations in the lung and CNS of rats following oral dosing: To assess basic pharmacokinetic parameters following oral dosing, 9 male and 9 female Sprague Dawley (SD) rats were administered 404-02 at 1, 10 or 50 mg/kg doses via oral gavage. Doses were prepared in sesame oil and individualized to body weight on the day of dosing. Blood was drawn at 0, 1, 2, 4, 8 and 24 hours post-dose on days 1 and 15. Blood was collected from the orbital sinus after carbon dioxide/oxygen inhalation for determination of 404-02 plasma concentrations. Plasma was transferred to cryovials and stored at −80° C. until processing and LC-MS/MS analysis. A standard curve was derived for 404-02 in rat plasma, and quantification of experimental results was based on this standard curve.\nPharmacokinetic parameters were obtained using non-compartmental analysis, WinNonlin™ version 5.2."}, "[2]": {"test_system": "NQO1", "assay": "Nrf2 target gene induction, NQO1", "type": "cell-based, human", "settings": "MDA-MB-435 cells, 250 nM; fold induction above DMSO control"}, "[3]": {"test_system": "mice", "settings": "sesame oil, N=4"}, "[4]": {"test_system": "IFNγ-induced NO production in RAW264.7 macrophages", "assay": "Suppression of IFNγ-induced NO production (Griess reagent)", "type": "cell-based, mouse", "settings": "Mus musculus; RAW264.7, 20 ng/ml IFNγ 24 h, 2 h pre-treatment", "procedure,_shortened": "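Cells pre-treated with DMSO or compound at various nM concentrations for 2 h, then stimulated with 20 ng/ml recombinant mouse IFNγ for 24 h. Nitrite in medium measured by Griess reagent; viability read by WST-1.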"}, "[5]": {"assay": "Aqueous solubility determination (Multiscreen solubility filter plate, UV/vis)", "type": "physicochemical", "settings": "universal aqueous buffer, pH 7.4, aqueous buffer, kinetic from dmso stock, universal aqueous buffer pH 7.4, 90 min, room temperature", "method": "Aqueous Solubility Determination. The following procedure was used to obtain the aqueous solubility results summarized in Example 8. Step 1. Determination of optimal UV/vis wavelengths and generation of standard curves for a compound of interest: • (1) For eight standard calibration curves (one plate), prepare 34 mL of 50:50 (v:v) universal buffer:acetonitrile in a 50 mL tube. • (2) Using a multichannel pipet, dispense (in μL) the buffer:acetonitrile in a deep well plate as follows:\n• (6) Cover plate with lid and shake (200-300 rpm) at room temperature for 20 minutes. • (7) Mix all wells by pipetting up and down 10 times. • (8) Transfer 120 μL from each well to a UV transparent plate. Cover and shake for 3-5 minutes. Remove any bubbles in the wells using a pipet. • (9) Read from 220 nm to 500 nm at 10 nm increments on a spectrophotometer (e.g., SpectraMax®).\nStep 2. Compound Solubility Testing Procedures Using the Millipore™ Multiscreen® Solubility Filter Plate.\nUniversal Aqueous Buffer: • (a) To prepare 500 mL of universal buffer, add the following: 250 mL Nanopure water; 1.36 mL (45 mM) ethanolamine; 3.08 g (45 mM) potassium dihydrogen phosphate; 2.21 g (45 mM) potassium acetate; thoroughly mix. • (b) Adjust pH to 7.4 with HCl and q.s. to 500 mL with 0.15 M KCl. • (c) Filter to remove particulates and reduce bacterial growth. • (d) Store at 4° C. in the dark.\nSolubility Protocol: • (a) Add 285 μL of Universal Aqueous Buffer to desired wells of the Millipore™ Multiscreen® Solubility filter plate. • (b) Add 15 μL of 10 mM compound in DMSO to the appropriate wells. Add 15 μL of 100% DMSO only to 6 wells of the filter plate for blanks. • (c) Using a multichannel pipet, mix wells by pipetting up and down 10 times. Be careful not to touch the filters in the plate with the tips. • (d) Cover and gently shake (200-300 rpm) filter plate for 90 minutes at room temperature. • (e) Vacuum filter the aqueous solution from the Multiscreen® solubility filter plate into a polypropylene V-bottom plate. • (f) Transfer 60 μL of filtrate to a UV transparent plate (Greiner® UV-Star Analysis Plate). • (g) Add 60 μL of acetonitrile to each well and mix by pipetting up and down 10 times. • (h) Cover and gently shake for 3-5 minutes. Remove any bubbles with a pipet. • (i) Measure the absorbance of each well in the plate on the spectrophotometer (UV/vis) at the desired wavelength. For compounds in a plate with different absorbance peaks, set the spectrophotometer to read a spectrum (e.g., from 220 nm to 460 nm). • (j) Identify concentration using measured absorbance for each compound and the predetermined standard curve (see Step 1)."}, "[6]": {"test_system": "thioredoxin reductase-1 (TrxR1)", "assay": "Nrf2 target gene induction, TrxR1 mRNA (qPCR)", "type": "cell-based, human", "settings": "MDA-MB-435 cells, 16 hours", "method": "FIG. 21. Induction of HO-1, TrxR1 and γ-GCS. MDA-MB-435 human melanoma cells were treated with vehicle (DMSO) or the indicated compounds and concentrations for 16 hours. HO-1, thioredoxin reductase-1 (TrxR1), and γ-glutamylcysteine synthetase (γ-GCS) mRNA levels were quantified using qPCR and were normalized relative to a DMSO-treated sample run in parallel. Values are averages of duplicate wells.\nFIG. 22. Induction of TrxR1. MDA-MB-435 human melanoma cells were treated with vehicle (DMSO) or the indicated compounds and concentrations for 16 hours. Thioredoxin reductase-1 (TrxR1) mRNA levels were quantified using qPCR and were normalized relative to a DMSO-treated sample run in parallel. Values are averages of duplicate wells. Compounds 401, 402-19 and 402-53 are comparison compounds (see Example 1).\nNrf2 target gene induction. MDA-MB-435 human melanoma cells were treated with vehicle (DMSO) or the indicated compounds and concentrations for 16 hours. HO-1, thioredoxin reductase-1 (TrxR1), γ-glutamylcysteine synthetase (γ-GCS), and ferritin heavy chain mRNA levels were quantified using qPCR and were normalized relative to a DMSO-treated sample run in parallel. Values are averages of duplicate wells. Primer sequences are as follows."}, "[7]": {"settings": "1 mg/kg/day, day 1, n=9/sex/dose level"}, "[8]": {"settings": "1 mg/kg/day, day 15, n=9/sex/dose level"}, "[9]": {"settings": "10 mg/kg/day, day 1, n=9/sex/dose level"}, "[10]": {"settings": "10 mg/kg/day, day 15, n=9/sex/dose level"}, "[11]": {"settings": "50 mg/kg/day, day 1, n=9/sex/dose level"}, "[12]": {"settings": "50 mg/kg/day, day 15, n=9/sex/dose level"}},
  "note": "Read-outs that look alike come from different tables or passages of the source.",
  "data": [
    {"compound": "CC1(C)CC[C@]2(C(=O)NCC(F)(F)F)CC[C@]3(C)[C@H](C(=O)C[C@@H]4[C@@]5(C)C=C(C#N)C(=O)C(C)(C)[C@@H]5CC[C@]43C)[C@@H]2C1", "note": "[Compound 63102, (4aS,6aR,6bR,8aR,12aR,12bR,14aR,14bS)-11-cyano-2,2,6a,6b,9,9,12a-heptamethyl-10,14-dioxo-N-(2,2,2-trifluoroethyl)-1,2,3,4,4a,5,6,6a,6b,7,8,8a,9,10,12a,12b,13,14,14a,14b-icosahydropicene-4a-carboxamide]", "values": [
      {"measurement": "Mean Maximum 404-02 Plasma Concentration (nM) ± SEM", "setting": "[1]; [7]", "result": "5.7 ± 1.1", "unit": "nM"},
      {"measurement": "Mean Maximum 404-02 Plasma Concentration (ng/mL) ± SEM", "setting": "[1]; [7]", "result": "3.3 ± 0.65", "unit": "ng/mL"},
      {"measurement": "Mean Maximum 404-02 Plasma Concentration (nM) ± SEM", "setting": "[1]; [8]", "result": "11.0 ± 1.6", "unit": "nM"},
      {"measurement": "Mean Maximum 404-02 Plasma Concentration (ng/mL) ± SEM", "setting": "[1]; [8]", "result": "6.3 ± 0.9", "unit": "ng/mL"},
      {"measurement": "Mean Maximum 404-02 Plasma Concentration (nM) ± SEM", "setting": "[1]; [9]", "result": "116 ± 28.7", "unit": "nM"},
      {"measurement": "Mean Maximum 404-02 Plasma Concentration (ng/mL) ± SEM", "setting": "[1]; [9]", "result": "66 ± 16.5", "unit": "ng/mL"},
      {"measurement": "Mean Maximum 404-02 Plasma Concentration (nM) ± SEM", "setting": "[1]; [10]", "result": "210 ± 42.3", "unit": "nM"},
      {"measurement": "Mean Maximum 404-02 Plasma Concentration (ng/mL) ± SEM", "setting": "[1]; [10]", "result": "144 ± 24.3", "unit": "ng/mL"},
      {"measurement": "Mean Maximum 404-02 Plasma Concentration (nM) ± SEM", "setting": "[1]; [11]", "result": "1241 ± 171", "unit": "nM"},
      {"measurement": "Mean Maximum 404-02 Plasma Concentration (ng/mL) ± SEM", "setting": "[1]; [11]", "result": "713 ± 98.2", "unit": "ng/mL"},
      {"measurement": "Mean Maximum 404-02 Plasma Concentration (nM) ± SEM", "setting": "[1]; [12]", "result": "1966 ± 199", "unit": "nM"},
      {"measurement": "Mean Maximum 404-02 Plasma Concentration (ng/mL) ± SEM", "setting": "[1]; [12]", "result": "1129 ± 114", "unit": "ng/mL"},
      {"measurement": "NQO1 induction", "setting": "[2]", "result": 2, "unit": "fold"},
      {"measurement": "Number of Deaths", "setting": "[3]; oral gavage QDx14, 10 mg/kg", "result": 0},
      {"measurement": "Number of Deaths", "setting": "[3]; oral gavage QDx14, 50 mg/kg", "result": 0},
      {"measurement": "Number of Deaths", "setting": "[3]; oral gavage QDx14, 100 mg/kg", "result": 0},
      {"measurement": "Number of Deaths", "setting": "[3]; oral gavage QDx14, 250 mg/kg", "result": 0},
      {"measurement": "IC50", "setting": "[4]", "result": "~45", "unit": "nM"},
      {"measurement": "solubility at 90 min", "setting": "[5]", "result": 0.06, "unit": "µM"},
      {"measurement": "TrxR1 mRNA induction: concentration needed compared with unsaturated counterpart (402, 404)", "setting": "[6]", "result": "higher concentrations"}
    ]}
  ]
}
